# In US20230240973A1, “CANNABIS SATIVA EXTRACTS AND THEIR USES” (LINNEA SA, priority 2020, published 2023):
# Legend:
# [1] = system: HaCaT cells; experiment: MTT cytotoxicity assay on HaCaT cells; assay type: cell-based, human; conditions: 6 or 24 hours (FIG. 4)
# Description: (§1) The cytotoxicity tests were performed using the MTT assay, capable of measuring the mitochondrial succinic dehydrogenase enzyme, whose activity indicates cell viability, on human keratinocytes or fibroblasts incubated with the Cannabis sativa extract according to example 2 and with pure CBD. The integrity of the morphology before and after 6 and 24 hour incubation was assessed by light microscopy.
# (§2) HaCaT cells, spontaneously immortalized human keratinocyte line (Boukamp et al., 1988) and normal human dermal fibroblasts (HDF) were cultured in DMEM (Gibco, Life Technologies, Monza, Italy) supplemented with 10% heat inactivated fetal bovine serum (Euroclone SpA, Milan, Italy), L-glutamine (2 mM; Gibco, Life Technologies, Monza, Italy), penicillin (100 U/ml), and streptomycin ([…]; Gibco, Life Technologies, Monza, Italy), at 37° C. in a humidified atmosphere containing 5% CO2. Every 4 days, at 80-90% confluence, the cells were detached using 0.25% trypsin-EDTA (Gibco, Life Technologies, Monza, Italy), counted and placed in a new flask at a density of 1.5×10^6 cells per flask, to allow for growth. For the purpose of the present analyses, the cells were seeded in 24-well plates and incubated with the extract according to the present invention or pure CBD at increasing concentrations. […]
# [2] = system: HDF cells; experiment: MTT cytotoxicity assay on HDF cells; assay type: cell-based, human; conditions: 6 or 24 hours (FIG. 3)
# Description: as §1, §2
# [3] = system: NF-kB; experiment: NF-kB driven transcription in TNF-α stimulated HaCaT cells; assay type: cell-based; conditions: human keratinocytes (HaCaT), read-out: IC50 of inhibition of NF-kB-driven transcription
# Description: (§3) To evaluate the anti-inflammatory activity of the extract according to the present invention, the in vitro effect after exposure to pro-inflammatory stimuli on the expression levels of factors known to be involved in inflammatory processes was evaluated.
# The nuclear transcription factor NF-kB is activated by pro-inflammatory stimuli and activates the transcription of genes that amplify the inflammatory process, such as MMP-9, cytokines and growth factors such as VEGF.
# [4] = system: IL-8; experiment: IL-8 secretion in TNF-α stimulated HaCaT cells; assay type: cell-based; conditions: human keratinocytes (HaCaT), TNF-α 10 ng/ml
# Description: as §3
# (§4) In particular, the following were chosen as inflammation markers: • IL-8, a cytokine secreted by keratinocytes and fibroblasts following inflammation and particularly involved in skin diseases such as psoriasis; • MMP-9, a metalloprotease which degrades the extracellular matrix and which is activated following chronic skin inflammations such as dermatitis and psoriasis; • VEGF, the release of which by keratinocytes leads to the formation of the classic psoriatic plaques in patients suffering from this pathology.
# [5] = system: VEGF; experiment: VEGF secretion in TNF-α stimulated HaCaT cells; assay type: cell-based; conditions: human keratinocytes (HaCaT), TNF-α 10 ng/ml
# Description: as §3, §4
# [6] = system: MMP-9; experiment: MMP-9 secretion in TNF-α stimulated HaCaT cells; assay type: cell-based; conditions: human keratinocytes (HaCaT), TNF-α 10 ng/ml
# Description: as §3, §4
# [7] = system: IL-8; experiment: IL-8 release in TNF-α stimulated HDF cells; assay type: cell-based; conditions: human fibroblasts (HDF)
# Source text: (§5) FIG. 7: effect evaluated on TNF-α stimulated HDF cells (A) on transcription induced by NF-kB and on release of (B) IL8, (C) MMP-9 following exposure to the indicated doses of the composition according to the present invention and, for comparative purposes, (D) on NF-kB-induced transcription and (E) IL8, (F) MMP-9 release following exposure to pure CBD.
# as §3, §4
# (§6) FIG. 7 reports the results obtained in human fibroblasts.
# [8] = system: MMP-9; experiment: MMP-9 release in TNF-α stimulated HDF cells; assay type: cell-based; conditions: human fibroblasts (HDF)
# Source text: as §5, §3, §4, §6
smiles,measurement,setting,value
"C=C(C)[C@@H]1CCC(C)=C[C@H]1c1c(O)cc(CCCCC)cc1O [CBD, cannabidiol]",concentrations showing cytotoxic effects,[1],above 5 μM
same,concentrations showing cytotoxic effects,[2],above 2.5 μM
same,IC50,[3],2850 nM
same,effect on expression levels of IL-8,[4],no effect
same,effect on expression levels of VEGF,[5],modest
same,effect on expression levels of MMP-9,[6],modest
same,effect on release of IL-8,[7],no effect
same,effect on release of MMP-9,[8],no effect
